Assay results published in US11352350B2, “IRAK degraders and uses thereof” (Kymera Therapeutics, Inc., priority 2018, dated 2022).
Like-named read-outs stand apart in the source and are kept apart here.

Assays:
TNFα [1] = experiment: Human whole blood LPS TNFα assay; type: cell-based; conditions: 20 h pretreatment, LPS 5 h, read-out: IRAK4 human whole blood LPS TNFa inhibition: Average external-IC50
Method: Human Whole blood LPS TNFα assay. Whole blood was collected fresh and plated same day into 96 well plates at 180 μL per well. Compound plates were prepared in DMSO as 8-point dose curves in duplicate, starting dose 2 μM, 5-fold. Compounds are added 20 μL into blood for final 200 μL per well. Compound and cells were incubated at 37° C., 5% CO2 for 20 hours. After twenty hours of pretreatment with the compounds, LPS (01 1 1:B4) (Sigma #L2637) was added at 100 ng/ml final concentration and blood incubated an additional five hours at 37° C., 5% CO2. Following assay completion, whole blood plates were spun down at 2000 rpm for 15 minutes at 4° C. 50 μL of plasma was carefully removed and placed into a new 96 well Costar (#3879) plate and stored at −80° C. until further analysis. Meso scale Discovery (MSD) human V-plex assays were used to measure cytokine levels. On day of cytokine analysis, plasma samples were thawed, diluted with V-plex diluent #2, and directly to MSD plates. Assay was further completed per standard manufacturer's protocol. Cytokine data was normalized to LPS stimulated and unstimulated controls. Prism Graphpad was used to generate IC50 using 4 parameter logistic regression curve, free-fit.

IRAK4 [2] = molecular target: T1, IRAK4 (Homo sapiens (Human), UniProt Q9NWZ3); experiment: IRAK4 degradation in human whole blood monocyte - flow cytometry; type: cell-based; conditions: read-out: IRAK4 degradation in whole blood monocyte-Flow cytometry: Average external Abs IC50
T1 sequence (Q9NWZ3 whole entry): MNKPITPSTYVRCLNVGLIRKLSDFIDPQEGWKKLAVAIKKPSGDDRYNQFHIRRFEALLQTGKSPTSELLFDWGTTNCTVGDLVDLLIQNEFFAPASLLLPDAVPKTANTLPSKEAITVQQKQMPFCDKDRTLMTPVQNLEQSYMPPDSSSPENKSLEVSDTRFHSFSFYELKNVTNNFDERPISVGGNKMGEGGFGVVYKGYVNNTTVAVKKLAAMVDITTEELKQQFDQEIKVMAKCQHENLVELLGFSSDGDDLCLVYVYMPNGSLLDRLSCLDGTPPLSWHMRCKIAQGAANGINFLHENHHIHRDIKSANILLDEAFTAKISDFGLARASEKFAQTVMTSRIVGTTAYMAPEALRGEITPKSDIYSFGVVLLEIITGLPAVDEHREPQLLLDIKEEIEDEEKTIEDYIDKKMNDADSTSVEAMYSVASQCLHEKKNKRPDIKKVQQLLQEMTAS
Method: (§1) Human whole blood IRAK4 degradation flow assay. Whole blood was collected in heparinized tubes and plated on the same day as draw (day 0). Whole blood was aliquoted into deep well plates. Compound plates were prepared and a 10 point, 5-fold dilution was performed with a final DMSO concentration of 0.1%. Compound was added to whole blood deep well plate, sealed and incubated at 37° C., 5% CO2 for 20 hours (for 4 hour treatment, compounds were prepared and added the following day). Following the treatment incubation period (day 1), BD lyse fix (BD #558049) was added to the whole blood plate, placed on plate shaker for 30 seconds and incubated for 10 mins at room temperature. Whole blood was then spun down and washed two times with PBS/0.5% BSA, aspirated to pellet and placed into −80° C. freezer until further processing for flow. On the flow run day, whole blood plates were thawed and samples were transferred to PCR plates. The pre-perm staining cocktail (CD3 Ax488/CD8 BUV805/CD14 BUV395/CD16/56 BV711/CD19 BV785) was added to samples and incubated for 30 minutes at room temperature. Samples were washed two times and permeabilized with Methanol for 10 minutes at 4° C. Samples were washed two times and the post-perm staining cocktail (CD4 PE/IRAK4 Ax647 BD #560315) was added and incubated for 30 minutes at room temperature. Samples were washed two times with PBS/BSA and run on a BD LSRFortessa. Mononuclear cells are gated by SSCH/FSCH and single cells. Monocytes are then gated through CD14 positive gate and lymphocytes are gated through CD14 negative gate. To determine absolute DC50 and max degradation values, MFI values were normalized to DMSO max and 20 hour 10 μM min control. Twenty hour dose curves were calculated using a 4 parameter logistic regression curve fit, no constraints (Top doses were removed if hook effects were observed and the bottom was constrained to 0).

OCI-LY10 = experiment: CTG Cell Viability Assay - OCI-LY10; type: cell-based, human; conditions: OCI-LY10, 4 days, read-out: CTG Cell Viability Assay - OCI-LY10: Average external-IC50
Summary of the method: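 Viability read by CellTiter-Glo luminescence after 4 days at 37° C under 5% CO2 with compound (top 10 μM final, 1:3 steps, 9 doses, DMSO 0.2%). Three-parameter logistic fit gave IC50.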

IRAK4 [3] = molecular target: T1, IRAK4; experiment: IRAK4 degradation in human whole blood lymphocyte - flow cytometry; type: cell-based; conditions: read-out: IRAK4 degradation in whole blood lymphocyte-Flow cytometry: Average external Abs IC50
Method: as §1

TNFα [4] = experiment: Human PBMC LPS TNFα assay; type: cell-based; conditions: hPBMC, LPS stimulation, read-out: IRAK4 hPBMC LPS TNF-α inhibition: Average external-IC50
Method: Human PBMC LPS TNFα assay. Frozen PBMCs were thawed into RPMI with 10% FBS/1% penicillin/streptomycin and same day plated into 96 well plates at 200,000 PBMC/[…] media per well. Compound plates were prepared in DMSO with D300 cassette as 8-point dose curves in duplicate, starting dose 2 μM, 5-fold. Compounds are added 200 nL into cells for final 200 μL per well. Compound and cells were incubated at 37° C., 5% CO2 for 20 hours. After twenty hours of pretreatment with the compounds, LPS (01 1 1:B4) (Sigma #L2637) was added at 100 ng/ml final concentration and PBMCs incubated an additional five hours at 37° C., 5% CO2. Following assay completion, PBMC plates were spun down at 2000 rpm for 10 minutes. 100 uL of supernatant was carefully removed and placed into a new 96 well Costar (#3879) plate and stored at −80° C. until further analysis. Meso scale Discovery (MSD) human V-plex assays were used to measure cytokine levels. On day of cytokine analysis, supernatant samples were thawed, diluted with V-plex diluent #2, and directly to MSD plates. Assay was further completed per standard manufacturer's protocol. Cytokine data was normalized to LPS stimulated and unstimulated controls. Prism Graphpad was used to generate IC50 using 4 parameter logistic regression curve, free-fit.

IRAK4 [5] = molecular target: T1, IRAK4; experiment: IRAK4 MSD degradation in OCI-LY10; type: cell-based; conditions: MSD
Summary of the method: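 Remaining IRAK4 quantified by electrochemiluminescent MSD sandwich assay with two anti-IRAK4 antibodies. Compounds were dosed as 8 concentrations in 1:3 steps from a 1 to 10 μM final top on OCI-LY10 cells, incubated 4 to 24 h at 37° C. under 5% CO2. DC50 fitted with a three-parameter logistic curve.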

[6] = OCI-LY10, 4 hrs, read-out: IRAK4 MSD degradation in OCI-LY10 at 4 hrs: Average external-Abs DC50

| Compound | IC50 (TNFα [1]) [nM] | DC50 (IRAK4 [2]) [nM] | IC50 (OCI-LY10; Homo sapiens, OCI-Ly10, 96 h) [nM] | DC50 (IRAK4 [3]) [nM] | IC50 (TNFα [4]) [nM] | DC50 (IRAK4 [5]; [6]) [nM] | IC50 (IRAK4 [2]) [nM] | DC50 (IRAK4 [5]; OCI-LY10, 24 hrs, read-out: IRAK4 MSD degradation in OCI-LY10 at 24 hrs: Average external-Abs DC50) [nM] | IC50 (OCI-LY10) [nM] |
| --- | --- | --- | --- | --- | --- | --- | --- | --- | --- |
| O=C1CCC(N2C[C@H](c3cccc(C#CCN4CCO[C@@H](CNC[C@H]5CC[C@H](n6cc(NC(=O)c7coc(-c8ccnc(NCC9CC9)c8)n7)c(C(F)F)n6)CC5)C4)c3)OC2=O)C(=O)N1 (stereo partly drawn) [I-39] | 100 to 500 | 50 to 100 | 50 to 100 | 100 to 500 | 50 to 100 | 10 to 100 |  |  |  |
| Cn1c(=O)n(C2CCC(=O)NC2=O)c2cccc(CCCN3CCO[C@@H](CNC[C@H]4CC[C@H](n5cc(NC(=O)c6coc(-c7ccnc(NCC8CC8)c7)n6)c(C(F)F)n5)CC4)C3)c21 (stereo partly drawn) [I-38] | 100 to 500 |  | < 50 | 50 to 100 | < 50 | < 10 | < 50 |  |  |
| CN(CCCOCCCc1cccc2c1n(C)c(=O)n2C1CCC(=O)NC1=O)C[C@H]1CC[C@H](n2cc(NC(=O)c3cccc(C(F)(F)F)n3)c(C(F)F)n2)CC1 (stereo partly drawn) [I-44] | > 1000 |  | > 1000 |  | > 1000 | > 1000 |  | > 1000 |  |
| Cn1c(=O)n(C2CCC(=O)NC2=O)c2ccc(CCCCOCCCCNC[C@H]3CC[C@H](n4cc(NC(=O)c5coc(-c6ccnc(NCC(F)(F)F)c6)n5)c(C(N)=O)n4)CC3)cc21 (stereo partly drawn) [I-9] | > 1000 |  | > 1000 | 50 to 100 |  | < 10 | < 50 |  |  |
| O=C1CCC(n2c3cc(CCCOCCOCCNC[C@H]4CC[C@H](n5cc(NC(=O)c6coc(-c7ccnc(NCC8CC8)c7)n6)c(C(F)F)n5)CC4)ccc3c3cccnc32)C(=O)N1 (stereo partly drawn) [I-81] |  |  | > 1000 | > 1000 | 500 to 1000 | 100 to 1000 | > 1000 |  |  |
| CN(CCCOCCCc1cccc2c1n(C)c(=O)n2C1CCC(=O)NC1=O)C(=O)[C@H]1CC[C@H](n2cc(NC(=O)c3coc(-c4ccnc(NCC(F)(F)F)c4)n3)c(C(N)=O)n2)CC1 (stereo partly drawn) [I-29] | > 1000 | 500 to 1000 |  | 500 to 1000 |  | < 10 |  |  | > 1000 |
| O=C1CCC(n2c(=O)oc3c(CCCOCCNC(=O)[C@H]4CC[C@H](n5cc(NC(=O)c6coc(-c7ccnc(NCC8CC8)c7)n6)c(C(F)F)n5)CC4)cccc32)C(=O)N1 (stereo partly drawn) [I-5] | > 1000 | 100 to 500 | < 50 | 100 to 500 |  | < 10 |  |  |  |
| CN(CCCOCCCc1cccc2c1n(C)c(=O)n2C1CCC(=O)NC1=O)C(=O)[C@H]1CC[C@H](n2cc(NC(=O)c3coc(-c4ccnc(NCC(F)(F)F)c4)n3)c(C(N)=O)n2)CC1 (stereo partly drawn) [I-28, N-[3-carbamoyl-1-[4-[3-[3-[1-(2,6-dioxo-3-piperidyl)-3-methyl-2-oxo-benzimidazol-4-yl]propoxy]propyl-methylcarbamoyl]cyclohexyl]pyrazol-4-yl]-2-[2-(2,2,2-trifluoroethylamino)-4-pyridyl]oxazole-4-carboxamide] | > 1000 | 50 to 100 |  | 100 to 500 |  | < 10 |  |  | < 50 |
| CN(C[C@@H]1CN(CCCc2ccc3c(c2)n(C)c(=O)n3C2CCC(=O)NC2=O)CCO1)C[C@H]1CC[C@H](n2cc(NC(=O)c3coc(-c4ccnc(NCC5CC5)c4)n3)c(C(C)(C)O)n2)CC1 (stereo partly drawn) [I-33] |  | 500 to 1000 | > 1000 | < 50 | 500 to 1000 | < 10 |  |  |  |
| NC(=O)c1nn([C@H]2CC[C@H](CNCCCOCCCc3cccc4c3oc(=O)n4C3CCC(=O)NC3=O)CC2)cc1NC(=O)c1coc(-c2ccnc(NCC(F)(F)F)c2)n1 (stereo partly drawn) [I-12] | 500 to 1000 | 500 to 1000 | 500 to 1000 | 100 to 500 |  | 10 to 100 |  |  |  |
| CN(CC1CCN(Cc2cccc3c2n(C)c(=O)n3C2CCC(=O)NC2=O)CC1)C[C@H]1CC[C@H](n2cc(NC(=O)c3coc(-c4ccnc(NCC5CC5)c4)n3)c(C(F)F)n2)CC1 (stereo partly drawn) [I-76] |  | 50 to 100 | < 50 | 50 to 100 | < 50 | < 10 |  |  |  |
| Cn1c(=O)n(C2CCC(=O)NC2=O)c2ccc(CCCOCCNC[C@H]3CC[C@H](n4cc(NC(=O)c5coc(-c6ccnc(NCC(F)(F)F)c6)n5)c(C(N)=O)n4)CC3)cc21 (stereo partly drawn) [I-8] | > 1000 |  | > 1000 | < 50 |  | 10 to 100 | < 50 |  |  |
| CN(CCCCOCCCCc1cccc2c1n(C)c(=O)n2C1CCC(=O)NC1=O)C[C@H]1CC[C@H](n2cc(NC(=O)c3coc(-c4ccnc(NCC5CC5)c4)n3)c(C(F)F)n2)CC1 (stereo partly drawn) [I-67] |  | 50 to 100 | < 50 | 50 to 100 | 50 to 100 | < 10 |  |  |  |
| CN(CC1CCN(CCC#Cc2ccc3c(c2)n(C)c(=O)n3C2CCC(=O)NC2=O)CC1)C(=O)[C@H]1CC[C@H](n2cc(NC(=O)c3coc(-c4ccnc(NCC5CC5)c4)n3)c(C(F)F)n2)CC1 (stereo partly drawn) [I-27] | 100 to 500 |  | < 50 | < 50 |  | < 10 | < 50 |  |  |
